The text below walks through data of patent US20100099677A1, “Compounds, Compositions and Methods Comprising Thiazole Derivatives” (Institute for OneWorld Health, priority 2008, published 2010).

For this experiment, the target named is T1, CFTR (Homo sapiens, UniProt P13569).
T1 construct: results in the phosphorylation and opening of CFTR anion channels; host or cells: Human colonic T84 cells
The experiment can be described thus: T84 assay (FLIPR membrane potential dye, forskolin/IBMX-stimulated CFTR channel activity). As to conditions: human colonic T84 cells, average of at least 2 runs unless otherwise indicated. The class given is cell-based. Here is the method:
(§1) For example, Human colonic T84 cells can be acquired from the European Collection of Cell Cultures (ECACC) and grown in standard culture conditions as described by the supplier. On the day before assay 25,000 T84 cells per well are plated into standard black walled, clear bottom 384-well assay plates in standard growth medium consisting of DMEM:F12 with 10% FBS and incubated overnight. On the day of the assay the plates are washed using a standard assay buffer (HBSS with 10 mM Hepes) and incubated for 15 minutes in serum free cell culture medium before the addition of a commercially available membrane potential sensitive fluorescent dye (FLIPR Red membrane potential dye, Molecular Devices Corporation). T84 cells are incubated with the FLIPR Red membrane potential dye for 45 minutes in the presence and absence of test compound before being transferred to a commercially available fluorescence imaging plate reader (FLIPR384, Molecular Devices Corporation). Fluorescence levels are monitored continuously every second for 150 seconds; after an initial 10 second baseline, CFTR channel activity is stimulated through the addition of 10 μM forskolin in the presence of 100 μM of the phosphodiesterase inhibitor iso-butyl-methylxanthine (IBMX). Addition of the forskolin leads to the activation of intracellular adenylyl cylase 1, elevating cAMP levels and results in the phosphorylation and opening of CFTR anion channels. CFTR channel opening causes chloride ion efflux and subsequent depolarization of the cells, which is measured by an increase in fluorescence. CFTR inhibitor compounds prevent cell depolarization and the associated increase in fluorescence.
as §1, with “Human colonic” for “For example, Human colonic”, “T84 cells are acquired from” for “T84 cells can be acquired from”, “(ECACC) and are grown in” for “(ECACC) and grown in”

T1 sequence (P13569 whole entry): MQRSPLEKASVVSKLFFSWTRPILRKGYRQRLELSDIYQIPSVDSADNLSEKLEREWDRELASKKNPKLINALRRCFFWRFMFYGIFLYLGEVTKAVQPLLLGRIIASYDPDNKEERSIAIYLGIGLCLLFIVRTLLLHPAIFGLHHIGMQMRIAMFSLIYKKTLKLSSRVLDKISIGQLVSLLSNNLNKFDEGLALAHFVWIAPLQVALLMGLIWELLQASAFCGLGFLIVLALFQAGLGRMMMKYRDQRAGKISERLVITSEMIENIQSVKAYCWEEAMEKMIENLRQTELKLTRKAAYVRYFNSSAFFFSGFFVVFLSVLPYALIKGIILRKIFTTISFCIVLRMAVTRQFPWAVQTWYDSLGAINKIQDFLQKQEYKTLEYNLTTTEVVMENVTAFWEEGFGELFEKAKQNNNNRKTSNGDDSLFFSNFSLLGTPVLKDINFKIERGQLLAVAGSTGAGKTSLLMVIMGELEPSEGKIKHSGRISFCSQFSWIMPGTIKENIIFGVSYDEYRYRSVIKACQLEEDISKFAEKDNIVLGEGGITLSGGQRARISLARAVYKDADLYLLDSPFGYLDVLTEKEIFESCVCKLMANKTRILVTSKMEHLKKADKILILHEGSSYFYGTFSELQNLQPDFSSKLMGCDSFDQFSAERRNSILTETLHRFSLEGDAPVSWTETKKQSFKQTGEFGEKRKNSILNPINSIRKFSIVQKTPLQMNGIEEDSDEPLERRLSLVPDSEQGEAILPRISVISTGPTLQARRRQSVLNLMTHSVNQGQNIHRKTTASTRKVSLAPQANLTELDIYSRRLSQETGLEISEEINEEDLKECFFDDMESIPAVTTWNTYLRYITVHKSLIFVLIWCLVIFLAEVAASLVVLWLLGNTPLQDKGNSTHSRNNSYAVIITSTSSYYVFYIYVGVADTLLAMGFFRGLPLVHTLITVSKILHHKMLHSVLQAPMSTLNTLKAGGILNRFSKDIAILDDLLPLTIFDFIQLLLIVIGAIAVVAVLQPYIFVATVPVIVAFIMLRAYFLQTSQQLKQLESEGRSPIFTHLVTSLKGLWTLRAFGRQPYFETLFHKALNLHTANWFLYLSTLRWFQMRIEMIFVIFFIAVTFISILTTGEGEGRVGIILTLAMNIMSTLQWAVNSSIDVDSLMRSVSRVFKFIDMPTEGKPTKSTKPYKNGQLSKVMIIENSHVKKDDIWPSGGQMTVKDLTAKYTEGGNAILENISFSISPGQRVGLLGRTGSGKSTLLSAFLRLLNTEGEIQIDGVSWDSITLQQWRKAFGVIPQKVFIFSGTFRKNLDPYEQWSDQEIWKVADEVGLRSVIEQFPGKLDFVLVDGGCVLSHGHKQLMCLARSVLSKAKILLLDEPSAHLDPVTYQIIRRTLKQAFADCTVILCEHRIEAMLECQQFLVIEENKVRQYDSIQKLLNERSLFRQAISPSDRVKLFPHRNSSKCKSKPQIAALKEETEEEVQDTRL

Compound `O=C(c1nc(-c2cc(Br)c(O)c(Br)c2OCCN2CCOCC2)cs1)N1CCC(Cc2ccccc2)CC1` [Compound 86, (4-benzylpiperidin-1-yl)(4-(3,5-dibromo-4-hydroxy-2-(2-morpholinoethoxy)phenyl)thiazol-2-yl)methanone] came in with an IC50 of 3.03 µM.
`O=C(NCc1cccc(OC(F)(F)F)c1)c1csc(-c2cc(Cl)c(O)c(Cl)c2)n1` [Compound 80, 2-(3,5-Dichloro-4-hydroxyphenyl)-N-(3-(trifluoromethoxy)benzyl)thiazole-4-carboxamide] registered an IC50 of 15 µM.
On to `O=C(O)CCCOc1c(-c2csc(C(=O)N3CCC(Cc4ccccc4)CC3)n2)cc(Br)c(O)c1Br` [Compound 89, 4-(6-(2-(4-Benzylpiperidine-1-carbonyl)thiazol-4-yl)-2,4-dibromo-3-hydroxyphenoxy)butanoic acid], for which the IC50 stood at 8.79 µM.
In turn, `COCCOCCOc1c(-c2csc(C(=O)N3CCC(Cc4ccccc4)CC3)n2)cc(Br)c(O)c1Br` [Compound 87, (4-benzylpiperidin-1-yl)(4-(3,5-dibromo-4-hydroxy-2-(2-(2-methoxyethoxy)ethoxy)phenyl)thiazol-2-yl)methanone] came in with an IC50 of 1.73 µM.
Turning to `CCOC(=O)CCCOc1c(-c2csc(C(=O)N3CCC(Cc4ccccc4)CC3)n2)cc(Br)c(O)c1Br` [Compound 83, Ethyl 4-(6-(2-(4-benzylpiperidine-1-carbonyl)thiazol-4-yl)-2,4-dibromo-3-hydroxyphenoxy)butanoate], the IC50 was 4.2 µM.
Take `O=C(c1nc(-c2cc(Cl)c(O)c(Cl)c2)cs1)N1CCC(Cc2ccccc2)CC1` [Compound 70, (4-benzylpiperidin-1-yl)(4-(3,5-dichloro-4-hydroxyphenyl)thiazol-2-yl)methanone]: the IC50 was 8.95 µM. This IC50 is about 2.1-fold higher than that of the compound before.
In turn, `O=C(NCc1ccc(Oc2ccccc2)cc1)c1nc(-c2cc(Cl)c(O)c(Cl)c2)cs1` [Compound 76, 4-(3,5-Dichloro-4-hydroxyphenyl)-N-(4-phenoxybenzyl)thiazole-2-carboxamide] had an IC50 of 29.5 µM.
In the case of `O=C(c1nc(-c2cc(Br)c(O)c(Br)c2)cs1)N1CCC(Cc2ccccc2)CC1` [Compound 72, (4-Benzylpiperidin-1-yl)[4-(3,5-dibromo-4-hydroxyphenyl)thiazol-2-yl]methanone], the IC50 turned out to be 11.1 µM.
As for `O=C(c1nc(-c2cc(Br)c(O)c(Br)c2)cs1)N1CCN(c2cccc(C(F)(F)F)c2)CC1` [Compound 73, (4-(3,5-Dibromo-4-hydroxyphenyl)thiazol-2-yl)(4-(3-(trifluoromethyl)phenyl)piperazin-1-yl)methanone], the figure is 12.3 µM; as for `CN(Cc1cccc(C(F)(F)F)c1)C(=O)c1nc(-c2cc(Cl)c(O)c(Cl)c2)cs1` [Compound 67, 4-(3,5-Dichloro-4-hydroxyphenyl)-N-methyl-N-(3-(trifluoromethyl)benzyl)thiazole-2-carboxamide], 4.04 µM.
Compound `Cc1cccc(COc2c(-c3csc(C(=O)N4CCC(Cc5ccccc5)CC4)n3)cc(Br)c(O)c2Br)n1` [Compound 88, (4-benzylpiperidin-1-yl)(4-(3,5-dibromo-4-hydroxy-2-((6-methylpyridin-2-yl)methoxy)phenyl)thiazol-2-yl)methanone] showed a half-inhibitory concentration (IC50) of 15.5 µM. This IC50 is about 3.8-fold higher than that of the compound before.
With `O=C(NCc1cccc(OC(F)(F)F)c1)c1nc(-c2cc(Br)c(O)c(Br)c2O)cs1` [Compound 78, 4-(3,5-dibromo-2,4-dihydroxyphenyl)-N-(3-(trifluoromethoxy)benzyl)thiazole-2-carboxamide], the IC50 is 2.56 µM.
Compound `O=C(c1nc(-c2cc(Br)c(O)c(Br)c2O)cs1)N1CCC(Cc2ccccc2)CC1` [Compound 68, (4-Benzylpiperidin-1-yl)(4-(3,5-dibromo-2,4-dihydroxyphenyl)thiazol-2-yl)methanone] displayed a half-inhibitory concentration (IC50) of 4.78 µM.
`O=C(NCc1ccc(Oc2ccccc2)cc1)c1nc(-c2cc(Br)c(O)c(Br)c2)cs1` [Compound 75, 4-(3,5-Dibromo-4-hydroxyphenyl)-N-(4-phenoxybenzyl)thiazole-2-carboxamide] returned an IC50 of 23.9 µM.
Compound `O=C(NC(c1ccccc1)c1ccccc1)c1nc(-c2cc(Cl)c(O)c(Cl)c2)cs1` [Compound 69, N-Benzhydryl-4-(3,5-dichloro-4-hydroxyphenyl)thiazole-2-carboxamide] had an IC50 of 6.51 µM.
For the compound `O=C(NCC(c1ccccc1)c1ccccc1)c1nc(-c2cc(Br)c(O)c(Br)c2O)cs1` [Compound 81, 4-(3,5-dibromo-2,4-dihydroxyphenyl)-N-(2,2-diphenylethyl)thiazole-2-carboxamide], 4.22 µM corresponded to half-maximal inhibition (IC50).
As for `O=C(NCc1ccc(Oc2ccccc2)cc1)c1nc(-c2cc(Br)c(O)c(Br)c2O)cs1` [Compound 79, 4-(3,5-dibromo-2,4-dihydroxyphenyl)-N-(4-phenoxybenzyl)thiazole-2-carboxamide], the figure is 11.5 µM.
Regarding `O=C(c1nc(-c2cc(Br)c(O)c(Br)c2O)cs1)N1CCN(c2cccc(C(F)(F)F)c2)CC1` [Compound 82, (4-(3,5-dibromo-2,4-dihydroxyphenyl)thiazol-2-yl)(4-(3-(trifluoromethyl)phenyl)piperazin-1-yl)methanone], the IC50 came out at 12.6 µM.
Under `O=C(NC(c1ccccc1)c1ccccc1)c1nc(-c2cc(Br)c(O)c(Br)c2)cs1` [Compound 71, N-Benzhydryl-4-(3,5-dibromo-4-hydroxyphenyl)thiazole-2-carboxamide] stands 9.24 µM; under `O=C(c1nc(-c2cc(Cl)c(O)c(Cl)c2)cs1)N1CCN(c2cccc(C(F)(F)F)c2)CC1` [Compound 74, (4-(3,5-Dichloro-4-hydroxyphenyl)thiazol-2-yl)(4-(3-(trifluoromethyl)phenyl)piperazin-1-yl)methanone], 20 µM.
